Measured values taken from PubChem BioAssay (NCI).
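These data come from cells grown in 96-well plates and exposed to compound for 48 hours at five concentrations. At the GI50, growth is halved. TGI: total growth inhibition.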

What was measured:
Assay in all cases: NCI-60 cell line screen, 48 h
OVCAR-5 ovarian = system: OVCAR-5 ovarian
SN12C renal = system: SN12C renal
SK-MEL-2 melanoma = system: SK-MEL-2 melanoma
HOP-92 NSCLC = system: HOP-92 NSCLC
TK-10 renal = system: TK-10 renal
HOP-62 NSCLC = system: HOP-62 NSCLC
COLO 205 colon = system: COLO 205 colon
HL-60(TB) leukemia = system: HL-60(TB) leukemia
HCT-15 colon = system: HCT-15 colon
MCF7 breast = system: MCF7 breast

| SMILES | TGI (OVCAR-5 ovarian) | TGI (SN12C renal) | TGI (SK-MEL-2 melanoma) | TGI (HOP-92 NSCLC) | TGI (TK-10 renal) | TGI (HOP-62 NSCLC) | TGI (COLO 205 colon) | TGI (HL-60(TB) leukemia) | TGI (HCT-15 colon) | GI50 (OVCAR-5 ovarian) | GI50 (SN12C renal) | GI50 (SK-MEL-2 melanoma) | GI50 (HOP-92 NSCLC) | GI50 (TK-10 renal) | GI50 (HOP-62 NSCLC) | GI50 (HL-60(TB) leukemia) | GI50 (HCT-15 colon) | GI50 (MCF7 breast) | TGI (MCF7 breast) | GI50 (COLO 205 colon) |
| --- | --- | --- | --- | --- | --- | --- | --- | --- | --- | --- | --- | --- | --- | --- | --- | --- | --- | --- | --- | --- |
| CCCCCCCCCCCCCP(=O)(OC)OC | 30.6 µM | 35 µM | 31.3 µM | 35 µM | 31.6 µM | 28.2 µM | 34.2 µM | 32.9 µM | 31.6 µM |  |  |  |  |  |  |  |  |  |  |  |
| CC(O)(c1ccc(OCCC[N+](C)(C)C)cc1)C(C)(O)c1ccc(OCCC[N+](C)(C)C)cc1 (stereo not drawn) | > 100 µM | > 100 µM | > 100 µM | > 100 µM |  | > 100 µM | > 100 µM | > 100 µM | > 100 µM |  |  |  |  |  |  |  |  |  |  |  |
| O=C(O)CC(S)C(=O)O.[Li+].[Sb] (stereo not drawn) | > 100 µM | > 100 µM | > 100 µM | > 100 µM | > 100 µM | > 100 µM |  | > 100 µM | > 100 µM | > 100 µM | > 100 µM | 40.5 µM | > 100 µM | > 100 µM | 44.2 µM | > 100 µM | > 100 µM |  |  |  |
| COc1ccc2[nH]cc(C3(c4c[nH]c5ccc(OC)cc45)C(=O)Nc4ccc(Cl)cc43)c2c1 | 43.1 µM | 18.6 µM | 6.67 µM | 10.3 µM |  | 21.3 µM | 3.53 µM |  | > 100 µM | 4.08 µM | 4.34 µM | 2.9 µM | 2.2 µM |  | 5.18 µM |  | 7.09 µM | 3.12 µM | 42.8 µM | 1.88 µM |
| COc1ccc(C(=O)/C=C/c2c(C(F)(F)F)nc3ccccn23)cc1OC |  | > 100 µM | 5.09 µM |  | > 20.6 µM | > 28.4 µM | 3.95 µM | 2.64 µM | > 100 µM |  | 3.53 µM | 1.72 µM |  | 2.07 µM | 3.38 µM | 0.758 µM | 1.57 µM | 0.518 µM | > 100 µM | 1.86 µM |
| O=C(CC1(O)C(=O)Nc2c(Cl)cc(Cl)cc21)c1ccc([N+](=O)[O-])cc1 (stereo not drawn) | > 100 µM | > 68 µM | > 100 µM | 75.5 µM | > 100 µM | > 100 µM | > 92.7 µM | > 52.5 µM | > 100 µM |  |  |  |  |  |  |  |  |  |  |  |
| Cc1cc(=O)n2c(cc3cccccc32)n1 | > 100 µM | > 100 µM | > 100 µM |  | > 100 µM | > 100 µM | > 100 µM | > 100 µM | > 100 µM |  |  |  |  |  |  |  |  |  |  |  |
| CSC(=NC(=O)c1ccccc1)SCCSC(=NC(=O)c1ccccc1)SC | > 100 µM | > 100 µM | > 100 µM | 83.4 µM | > 100 µM | > 100 µM | > 100 µM | > 100 µM | > 100 µM |  |  |  |  |  |  |  |  |  |  |  |
| CC(Oc1ccc2c(=O)cc(-c3ccccc3)oc2c1)C(=O)O (stereo not drawn) |  | > 100 µM |  | > 100 µM | > 100 µM | > 100 µM | > 100 µM | > 100 µM |  |  |  |  |  |  |  |  |  |  |  |  |
| c1ccc(N2CCN(CCCN3CCc4c([nH]c5ccccc45)C3c3cccnc3)CC2)cc1 (stereo not drawn) | > 100 µM | 99.2 µM | > 100 µM | > 100 µM | > 100 µM | > 100 µM | 56.2 µM | > 58.3 µM | > 100 µM |  |  |  |  |  |  |  |  |  |  |  |
| Cc1ccc(-c2nc3ccccc3c(=O)n2NC2OC(CO)C(O)C(O)C2O)cc1 (stereo not drawn) | > 100 µM | > 100 µM | > 100 µM | > 100 µM | > 100 µM | > 100 µM | > 100 µM | > 100 µM | > 100 µM |  |  |  |  |  |  |  |  |  |  |  |
| CCOC(=O)Nc1cc2c(c(N)n1)N=C(c1ccccc1)CN2 | 27.7 µM | 37.8 µM |  | 34.8 µM | > 60.7 µM | 18.5 µM | 0.255 µM |  |  |  |  |  | < 0.0001 µM |  |  |  | < 0.0001 µM | 0.0232 µM | 20.5 µM | < 0.0001 µM |
| CC1(C)C=C(N2CCN(C3=CC(C)(C)NC(C)(C)C3)CC2)CC(C)(C)N1 | > 100 µM | > 100 µM |  | > 100 µM | > 100 µM | > 100 µM |  | > 100 µM | > 100 µM |  |  |  |  |  |  |  |  |  |  |  |
| CN(CCc1ccccn1)/[N+]([O-])=N/O (tested in a mixture with another compound) | > 100 µM | > 100 µM | > 100 µM | > 100 µM |  | > 100 µM | > 100 µM | > 100 µM | > 100 µM |  |  |  |  |  |  |  |  |  |  |  |
| O=C1C(c2ccccc2)=[N+]([O-])c2cc([N+](=O)[O-])ccc21 | > 100 µM | 59.6 µM | > 100 µM | 64.5 µM | 52.4 µM | > 100 µM | 36.9 µM | 30.1 µM | 56.5 µM |  |  |  |  |  |  |  |  |  |  |  |
| COc1ccc2[nH]cc(Cc3c[nH]c4ccc(OC)cc34)c2c1 | 58 µM | 31.3 µM | 43.3 µM |  | 44 µM |  | 35.3 µM | > 100 µM | 27.2 µM | 24.8 µM | 17.5 µM | 17.4 µM |  | 15.9 µM |  | 44.2 µM | 14.1 µM | 28.7 µM | > 100 µM | 18.6 µM |
| CC(=O)CCn1[nH]c(=O)c(Cl)c(Cl)c1=O | > 100 µM | > 100 µM | > 100 µM | > 100 µM | > 100 µM | > 100 µM |  | > 100 µM | > 100 µM |  |  |  |  |  |  |  |  |  |  |  |
| COC(=O)/C(=N\Nc1nc(=S)[nH]n1N)C(C#N)c1ccc(Cl)cc1 (stereo not drawn) | > 100 µM | > 100 µM | > 100 µM | > 100 µM | > 100 µM | > 100 µM | > 100 µM |  | > 100 µM |  |  |  |  |  |  |  |  |  |  |  |
| C=C1CCCC2OC(OC)CCC12 (stereo not drawn) | > 100 µM | > 100 µM | > 100 µM | > 100 µM | > 100 µM | > 100 µM | > 100 µM | > 100 µM | > 100 µM |  |  |  |  |  |  |  |  |  |  |  |
| CC1=C(C(=O)Nc2ccccc2C)C(c2ccccc2O)C(C(=O)Nc2ccccc2C)=C(C)N1 | 82.2 µM | 44 µM | 35.3 µM | > 100 µM | 86 µM | 45.8 µM |  | 61.2 µM | 29.4 µM |  |  |  |  |  |  |  |  |  |  |  |
| CCCc1nn(C)c(CCC(=O)N(Cc2ccccc2)Cc2ccccc2)c1CC | > 100 µM | > 100 µM | > 100 µM | > 100 µM | > 100 µM | > 100 µM | > 100 µM | > 100 µM | > 100 µM |  |  |  |  |  |  |  |  |  |  |  |
